Earlier results as cited in publication PMC10928227, “Assessing biologic/toxicologic effects of extractables from plastic contact materials for advanced therapy manufacturing using cell painting assay and cytotoxicity screening” (Scientific Reports, 2024).
Read-outs that look alike come from different tables or passages of the source.

Columns and labels:
[1] = cited from earlier work; for DNA damage and repair, Single Cell Gel Electrophoresis (comet) Assay: ref Yu F. Sasaki et. al., 2000, Critical Reviews in Toxicology,30(6),Pp.629-799
[2] = cited from earlier work; for Gene mutation, Mammalian Cell Gene Mutation Assay: T-lymphoma Cell Lines
[3] = in Vivo, Database Genotoxicity & Carcinogenicity ECVAM, ref EURL ECVAM genotoxicity and carcinogencity database, Madia F et al, 2020
[4] = in Vivo, Database Genotoxicity OASIS
[5] = Salmonella typhimurium, No Strain Information, in Vitro, Database: Genotoxicity OASIS, ref Mutation Research 584 (2005) 1-256, Kirkland et al.
[6] = Salmonella typhimurium, Strain TA 97, in Vitro, Database: Bacterial mutagenicity ISSSTY, ref CCRIS database,Toxnet databases (Romualdo Benigni)
[7] = Salmonella typhimurium, Strain TA 98, in Vitro, Database: Bacterial mutagenicity ISSSTY, ref CCRIS database,Toxnet databases (Romualdo Benigni)
[8] = Salmonella typhimurium, Strain TA 98, in Vitro, Database: Genotoxicity OASIS, ref P&G
[9] = Salmonella typhimurium, Strain TA 100, in Vitro, Database: Bacterial mutagenicity ISSSTY, ref CCRIS database,Toxnet databases (Romualdo Benigni)
[10] = Salmonella typhimurium, Strain TA 100, in Vitro, Database: Genotoxicity OASIS, ref P&G
[11] = Salmonella typhimurium, Strain TA 102, in Vitro, Database: Bacterial mutagenicity ISSSTY, ref CCRIS database,Toxnet databases (Romualdo Benigni)
[12] = Salmonella typhimurium, Strain TA 1535, in Vitro, Database: Bacterial mutagenicity ISSSTY, ref CCRIS database,Toxnet databases (Romualdo Benigni)
[13] = Salmonella typhimurium, Strain TA 1535, in Vitro, Database: Genotoxicity OASIS, ref P&G
[14] = Salmonella typhimurium, Strain TA 1537, in Vitro, Database: Bacterial mutagenicity ISSSTY, ref CCRIS database,Toxnet databases (Romualdo Benigni)
[15] = Salmonella typhimurium, Strain TA 1537, in Vitro, Database: Genotoxicity OASIS, ref P&G
[16] = in Vitro, Chinese hamster, Chinese Hamster Lung (CHL), Duration 24÷48 h, Database Genotoxicity OASIS, ref Sofuni, T., Ed. (1998). Data Book of Chromosomal Aberration Test In Vitro, Revised Edition
[17] = in Vitro, Database Genotoxicity & Carcinogenicity ECVAM, ref EURL ECVAM genotoxicity and carcinogencity database, Madia F et al, 2020
[18] = in Vitro, No Strain Information, Database Genotoxicity OASIS, ref Mutation Research 584 (2005) 1-256, Kirkland et al.
[19] = in Vitro, Salmonella typhimurium, Strain TA 97, Database Genotoxicity OASIS, ref P&G
[20] = in Vitro, Salmonella typhimurium, Strain TA 98, Database Genotoxicity OASIS, ref P&G
[21] = in Vitro, Salmonella typhimurium, Strain TA 100, Database Genotoxicity OASIS, ref P&G
[22] = in Vitro, Salmonella typhimurium, Strain TA 102, OECD Guideline 471, Database Genotoxicity OASIS, ref CCRIS database,Toxnet databases
[23] = in Vitro, Salmonella typhimurium, Strain TA 1535, Database Genotoxicity OASIS, ref P&G
[24] = in Vitro, Salmonella typhimurium, Strain TA 1537, Database Genotoxicity OASIS, ref P&G
[25] = in Vitro, Salmonella typhimurium, Strain TA 1538, Database Genotoxicity OASIS, ref P&G
[26] = in Vitro, Database Genotoxicity OASIS, ref Mutation Research 584 (2005) 1-256, Kirkland et al.
[27] = Database Genotoxicity & Carcinogenicity ECVAM, ref EURL ECVAM genotoxicity and carcinogencity database, Madia F et al, 2020

For `OCc1ccccc1` [100-51-6], the “Chromosome aberration, Micronucleus Assay” value [1, 3] is listed as “Negative”, the “DNA damage and repair, COMET or Alkaline Elution” value [1, 3] is listed as “Positive” and the “Chromosome aberration, Micronucleus Assay” value ([1]; in Vivo, Database Genotoxicity OASIS, ref Hayashi M., et al., Food Chem. Toxicol., 26(6), 487-500, 1988) is listed as “Negative”. For the same molecule, the “DNA damage and repair, Single Cell Gel Electrophoresis (comet) Assay” value (“DNA damage and repair … (comet) Assay” for short) [1, 4] was “Negative”, the “Gene mutation, Bacterial Reverse Mutation Assay (e.g. Ames Test)” value (“Gene mutation … (e.g. Ames Test)” below) [2, 5] was “Negative” and the “Gene mutation … (e.g. Ames Test)” value [2, 6] was “Negative”. The “Gene mutation … (e.g. Ames Test)” value [2, 7] was “Negative”, the “Gene mutation … (e.g. Ames Test)” value [2, 8] was “Negative” and the “Gene mutation … (e.g. Ames Test)” value [2, 9] was “Negative”. For the same molecule, the “Gene mutation … (e.g. Ames Test)” value [2, 10] was “Negative”, the “Gene mutation … (e.g. Ames Test)” value [2, 11] was “Negative” and the “Gene mutation … (e.g. Ames Test)” value [2, 12] was “Negative”. The “Gene mutation … (e.g. Ames Test)” value [2, 13] was “Negative”, the “Gene mutation … (e.g. Ames Test)” value [2, 14] was “Negative” and the “Gene mutation … (e.g. Ames Test)” value [2, 15] was “Negative”. The “Chromosome aberration, in Vitro Mammalian Chromosome Aberration Test” value ([2]; in Vitro, Chinese hamster, CHO Cells, Database Genotoxicity OASIS, ref ECHA, Registration dossier) was “Positive”, the “Chromosome aberration, in Vitro Mammalian Chromosome Aberration Test” value [2, 16] was “Negative” and the “Chromosome aberration, Micronucleus Assay” value [2, 17] was “Negative”. The “Chromosome aberration, in Vitro Mammalian Chromosome Aberration Test” value [2, 17] was “Negative”, the “Gene mutation … (e.g. Ames Test)” value [2, 17] was “Negative” and the “Gene mutation, Mammalian Cell Gene Mutation (MLA HPRT)” value (“Gene mutation … (MLA HPRT)” for short) [2, 17] was “Inadequate”. For the same molecule, the “Chromosome aberration, in Vitro Mammalian Chromosome Aberration Test” value [2, 18] was “Positive”, the “Gene mutation … (e.g. Ames Test)” value ([2]; in Vitro, Salmonella typhimurium, No Strain Information, Database Genotoxicity OASIS, ref Journal of Medicinal Chemistry 48 (1), pp. 312-32, 25, Kazius J, McGuire R., Bursi R) was “Negative” and the “Gene mutation … (e.g. Ames Test)” value [2, 19] was “Negative”. For the same molecule, the “Gene mutation … (e.g. Ames Test)” value [2, 20] was “Negative”, the “Gene mutation … (e.g. Ames Test)” value [2, 21] was “Negative” and the “Gene mutation … (e.g. Ames Test)” value [2, 22] was “Negative”. For the same molecule, the “Gene mutation … (e.g. Ames Test)” value [2, 23] was “Negative”, the “Gene mutation … (e.g. Ames Test)” value [2, 24] was “Negative” and the “Gene mutation … (e.g. Ames Test)” value [2, 25] was “Negative”. For the same molecule, the “Gene mutation, Mammalian Cell Gene Mutation Assay” value [2, 26] was “Positive”.

In the case of `Oc1ccccc1` [108-95-2], the “Chromosome aberration, in Vivo Mammalian Chromosome Aberration Test” value [1, 27] is given as “Negative”, the “Chromosome aberration, Micronucleus Assay” value [1, 3] is given as “Positive” and the “DNA damage and repair, COMET or Alkaline Elution” value [1, 3] is given as “Positive”. For the same molecule, the “Chromosome aberration, Micronucleus Assay” value ([1]; in Vivo, Database Genotoxicity OASIS, ref Ciranni, R., Barale, & Marrazzini, A. (1988), Mutat Res, 208, 61-67) was “Negative”, the “DNA damage and repair … (comet) Assay” value [1, 4] was “Positive” and the “Gene mutation … (e.g. Ames Test)” value [2, 5] was “Negative”. The “Gene mutation … (e.g. Ames Test)” value [2, 6] was “Negative”, the “Gene mutation … (e.g. Ames Test)” value [2, 7] was “Negative” and the “Gene mutation … (e.g. Ames Test)” value [2, 8] was “Negative”. The “Gene mutation … (e.g. Ames Test)” value [2, 9] was “Negative”, the “Gene mutation … (e.g. Ames Test)” value [2, 10] was “Negative” and the “Gene mutation … (e.g. Ames Test)” value [2, 11] was “Negative”. The “Gene mutation … (e.g. Ames Test)” value ([2]; Salmonella typhimurium, Strain TA 104, in Vitro, Database: Bacterial mutagenicity ISSSTY, ref CCRIS database,Toxnet databases (Romualdo Benigni)) was “Negative”, the “Gene mutation … (e.g. Ames Test)” value [2, 12] was “Negative” and the “Gene mutation … (e.g. Ames Test)” value [2, 13] was “Negative”. The “Gene mutation … (e.g. Ames Test)” value [2, 14] was “Negative”, the “Gene mutation … (e.g. Ames Test)” value [2, 15] was “Negative” and the “Gene mutation … (e.g. Ames Test)” value ([2]; Salmonella typhimurium, Strain TA 7001, in Vitro, Database: Bacterial mutagenicity ISSSTY, ref CCRIS database,Toxnet databases (Romualdo Benigni)) was “Negative”. For the same molecule, the “Gene mutation … (e.g. Ames Test)” value ([2]; Salmonella typhimurium, Strain TA 7002, in Vitro, Database: Bacterial mutagenicity ISSSTY, ref CCRIS database,Toxnet databases (Romualdo Benigni)) was “Negative”, the “Gene mutation … (e.g. Ames Test)” value ([2]; Salmonella typhimurium, Strain TA 7003, in Vitro, Database: Bacterial mutagenicity ISSSTY, ref CCRIS database,Toxnet databases (Romualdo Benigni)) was “Negative” and the “Gene mutation … (e.g. Ames Test)” value ([2]; Salmonella typhimurium, Strain TA 7004, in Vitro, Database: Bacterial mutagenicity ISSSTY, ref CCRIS database,Toxnet databases (Romualdo Benigni)) was “Negative”. The “Gene mutation … (e.g. Ames Test)” value ([2]; Salmonella typhimurium, Strain TA 7005, in Vitro, Database: Bacterial mutagenicity ISSSTY, ref CCRIS database,Toxnet databases (Romualdo Benigni)) was “Negative”, the “Gene mutation … (e.g. Ames Test)” value ([2]; Salmonella typhimurium, Strain TA 7006, in Vitro, Database: Bacterial mutagenicity ISSSTY, ref CCRIS database,Toxnet databases (Romualdo Benigni)) was “Negative” and the “Genetic Toxicity, Gene mutation (Bacterial Reverse Mutation Assay, e.g. Ames Test)” value ([2]; Salmonella typhimurium, strain TA 100, in Vitro, scale Gene mutation I, ref CCRIS database, Toxnet databases, Database: Bacterial mutagenicity ISSSTY (Romualdo Benigni, 2011)) was “Negative”. For the same molecule, the “Chromatids exchanges/ recombination, Sister Chromatid Exchange (SCE)” value [2, 17] was “Positive”, the “Chromosome aberration, Micronucleus Assay” value [2, 17] was “Positive” and the “DNA damage and repair, DNA Adducts” value [2, 17] was “Positive”. The “Gene mutation … (e.g. Ames Test)” value [2, 17] was “Negative”, the “Gene mutation … (MLA HPRT)” value [2, 17] was “Positive” and the “Gene mutation, in Vitro Mammalian Cell Micronucleus Test” value [2, 26] was “Positive”. The “Chromosome aberration, in Vitro Mammalian Chromosome Aberration Test” value [2, 18] was “Positive”, the “Gene mutation … (e.g. Ames Test)” value [2, 19] was “Negative” and the “Gene mutation … (e.g. Ames Test)” value [2, 20] was “Negative”. The “Gene mutation … (e.g. Ames Test)” value [2, 21] was “Negative”, the “Gene mutation … (e.g. Ames Test)” value [2, 22] was “Negative” and the “Gene mutation … (e.g. Ames Test)” value [2, 23] was “Negative”. For the same molecule, the “Gene mutation … (e.g. Ames Test)” value [2, 24] was “Negative”, the “Gene mutation … (e.g. Ames Test)” value [2, 25] was “Negative” and the “Gene mutation, Mammalian Cell Gene Mutation Assay” value [2, 26] was “Positive”. The “Genetic Toxicity, unscheduled DNA synthesis (UDS in Vitro)” value ([2]; in Vitro, scale Mutagenicity I (ECVAM), ref EURL ECVAM genotoxicity and carcinogencity database, Madia F et al, 2020) was “Positive”.

In the case of `Cc1cc(C(C)(C)C)c(O)c(C(C)(C)C)c1` [128-37-0], the “Chromosome aberration, in Vivo Mammalian Chromosome Aberration Test” value [1, 27] is listed as “Negative”, the “Chromosome aberration, Micronucleus Assay” value [1, 3] is listed as “Negative” and the “DNA damage and repair, COMET or Alkaline Elution” value [1, 3] is listed as “Positive”. For the same molecule, the “DNA damage and repair, DNA Adducts” value [1, 3] was “Negative”, the “Chromosome aberration, Micronucleus Assay” value ([1]; in Vivo, Database Genotoxicity OASIS, ref Bruce, W. R., & Heddle, J. A. (1979), Can. J. Genet. Cytol. 21, 319-334) was “Negative” and the “DNA damage and repair … (comet) Assay” value [1, 4] was “Negative”. The “Chromosome aberration, in Vitro Mammalian Chromosome Aberration Test” value ([2]; in Vitro, Chinese hamster, Chinese Hamster Lung (CHL), Duration 6÷18 h, Database Genotoxicity OASIS, ref Sofuni, T., Ed. (1998). Data Book of Chromosomal Aberration Test In Vitro, Revised Edition) was “Negative”, the “Chromosome aberration, in Vitro Mammalian Chromosome Aberration Test” value [2, 16] was “Negative” and the “Chromosome aberration, in Vitro Mammalian Chromosome Aberration Test” value [2, 17] was “Equivocal”. For the same molecule, the “Gene mutation … (MLA HPRT)” value [2, 17] was “Positive”, the “Chromosome aberration, in Vitro Mammalian Chromosome Aberration Test” value [2, 18] was “Negative” and the “Gene mutation, Mammalian Cell Gene Mutation Assay” value [2, 26] was “Positive”.
